{
  "source": "patent US11613531B2",
  "about": "“Inhibitors of RHO associated coiled-coil containing protein kinase” (Kadmon Corporation, LLC, priority 2017, dated 2023)",
  "test_system": "Bleomycin induced lung fibrosis in mice",
  "assay": "Prophylactic bleomycin induced lung fibrosis model",
  "format": "in vivo",
  "conditions": "21-day treatment",
  "source_text": "FIG. 9a. ROCK inhibitor is active in a mouse model of pulmonary fibrosis. Representative images of lung sections stained with Masson's trichrome to visualized fibrosis in the lungs of mice following 21-day treatment with ROCK inhibitor in the bleomycin-induced lung injury model.\nFIG. 9b. […] Ashcroft fibrotic indices, α-smooth muscle actin (αSMA) percentage positive area and total leukocytes count in bronchoalveolar lavage fluid obtained from lungs of mice in the bleomycin lung fibrosis model treated with compound of Example 192.\nProphylactic Efficacy of Compounds in Bleomycin Induced Lung Fibrosis in Mice\nMale C57B/L6 mice were ear tagged and weighed prior to the start of the study. Treatment group animals were treated with the compound on day −1 pre-bleomycin and all subsequent days post-bleomycin administration. On day 0, animals in disease groups received 1.5 U/kg dose of bleomycin via oropharyngeal route. […] Animals were closely monitored daily till the end of the study. […] Blood samples were used for plasma preparation; total leukocytes were counted in BAL fluid; and lungs were fixed in 10% neutral buffered formalin for histopathological analysis.\nBased on the strong anti-fibrotic cellular activity of ROCK inhibitors of this invention, the ability of such inhibitors to attenuate fibrosis in the in vivo setting was assessed in several mouse models of disease. […]",
  "data": [
    {"smiles": "Clc1cnc(N2C3CCC2CNC3)nc1Nc1ccc2[nH]ncc2c1", "note": "[Example 192, N-(2-(3,8-diazabicyclo[3.2.1]octan-8-yl)-5-chloropyrimidin-4-yl)-1H-indazol-5-amine]", "values": [
      {"measurement": "activity in bleomycin lung fibrosis model (Ashcroft fibrotic indices, αSMA percentage positive area, total leukocytes count in BAL fluid)", "result": "positive activity"}
    ]}
  ]
}
